These results are taken from patent US8399417B2, “Food” (Ajinomoto Co., Inc., priority 2007, dated 2013).

What all share (assay type): in vivo, human
Experiment [1] in a line: Fat-like richness and smoothness imparted to low-calorie mayonnaise, quantitative sensory evaluation test. To be noted: for Taste profile / Fat-like richness / Smoothness: Table 9; for Fat-like richness / Smoothness: control 0, strong 3, very strong 5 points. Here is the method:
In the same manner as that in Example 1 except that commercially-available low-calorie mayonnaise (having a fat content reduced by 50% compared with a normal product) was used instead of low-fat milk, each peptide was measured for its fat-like richness-imparting intensity.
In the same manner as that in Example 2, each sample was measured for its intensity of imparting fat-like richness.

A short description of experiment [2]: Fat-like richness and smoothness imparted to low-fat yogurt, quantitative sensory evaluation test. To be noted: Table 10; for Fat-like richness / Smoothness: n=12, control 0, strong 3, very strong 5 points. Here is the method:
The quantitative sensory evaluation test was performed as follows. Each of γ-Glu-Val-Gly and cinacalcet was mixed with commercially-available low-fat yogurt (non-fat milk solids content: 10.0%, milk fat content: 1.0%) at a concentration of 0.00001 to 1 g/dl, and the intensity of imparting fat-like richness was measured.
It should be noted that after each sample was dissolved in low-fat yogurt, and a sample, the pH of which was lowered, was adjusted with NaOH so that the pH might be ±0.2 with respect to the pH of the […] free of a sample.
(§1) The sensory score for fat-like richness and smoothness was defined as follows: control (free of sample): 0 point; strong: 3 points; and very strong: 5 points. Then, the test was performed with n=12.

Experiment [3] can be described thus: Fat-like richness and smoothness imparted to low-fat milk, quantitative sensory evaluation test. To be noted: for Taste profile / Fat-like richness / Smoothness: Table 8; for Fat-like richness / Smoothness: n=12, control 0, strong 3, very strong 5 points. Here is the method:
The quantitative sensory evaluation test was performed as follows. Each of γ-Glu-Cys-Gly (glutathione), γ-Glu-Val-Gly, and γ-Glu-Abu-Gly was mixed with commercially-available low-fat milk (non-fat milk solids content: 8.6% or more, milk fat content: 1.5%) at a concentration of 0.00001 to 1 g/dl, and the intensity of imparting fat-like richness was measured.
It should be noted that each peptide was dissolved in low-fat milk, and then a sample, the pH of which was lowered, was adjusted with NaOH so that the pH might be ±0.2 with respect to the pH of the low-fat milk free of peptide.
The sensory score for fat-like richness and smoothness was defined as follows: control (free of peptide): 0 point; strong: 3 points; and very strong: 5 points. Then, the test was performed with n=12. […] As clear from Table 6, it was confirmed that the peptide imparted fat-like richness and smoothness to low-fat milk at a lower concentration than glutathione.
The quantitative sensory evaluation test was performed as follows. Each of γ-Glu-Val-Gly and cinacalcet was mixed with commercially-available low-fat milk (non-fat milk solids content: 8.6% or more, milk fat content: 1.5%) at a concentration of 0.00001 to 1 g/dl, and the intensity of imparting fat-like richness was measured.
It should be noted that each sample was dissolved in low-fat milk, and then a sample, the pH of which was lowered, was adjusted with NaOH so that the pH might be ±0.2 with respect to the pH of the low-fat milk free of a sample.
as §1

The mark [4] stands for this setting: 0.0001 g/dl in low-calorie mayonnaise.
Where [5] appears, read: 0.001 g/dl in low-calorie mayonnaise.

For the compound `C[C@@H](NCCCc1cccc(C(F)(F)F)c1)c1cccc2ccccc12` [Cinacalcet, (R)—N-(3-(3-(trifluoromethyl)phenyl)propyl)-1-(1-naphthyl)ethylamine, reference compound], the Taste profile entry in experiment [1] (setting [4]) was “Lasting is present in aftertaste”; in experiment [1] (setting [5]) it was “Thickness and lasting”; in experiment [2] (0.0001 g/dl in low-fat yogurt), “Lasting is present in aftertaste”; in experiment [2] (0.001 g/dl in low-fat yogurt) it was “Lasting is present in aftertaste”; in experiment [3] (0.0001 g/dl in low-fat milk) it was “Lasting is present in aftertaste”; in experiment [3] (0.001 g/dl in low-fat milk), “Thickness and lasting”. Further, the Fat-like richness in experiment [1] (setting [4]) came to 1.8 points; in experiment [1] (setting [5]), 4.3 points; in experiment [2] (0.0001 g/dl in low-fat yogurt), 1.5 points; in experiment [2] (0.001 g/dl in low-fat yogurt (milk fat 1.0%)), 4.0 points; in experiment [3] (0.0001 g/dl in low-fat milk) it was 1.3 points; in experiment [3] (0.001 g/dl in low-fat milk) it was 4.0 points. Also, the Smoothness is on record as 2.5 points in experiment [1] (setting [4]); 4.8 points in experiment [1] (setting [5]); 2.0 points in experiment [2] (0.0001 g/dl in low-fat yogurt); 4.5 points in experiment [2] (0.001 g/dl in low-fat yogurt); 1.7 points in experiment [3] (0.0001 g/dl in low-fat milk); 4.2 points in experiment [3] (0.001 g/dl in low-fat milk). The “concentration at which fat-like richness and smoothness are imparted, compared with γ-Glu-Val-Gly” value in experiment [1] (low-calorie mayonnaise, conclusion from Table 9) is given as “comparable concentration to γ-Glu-Val-Gly”; in experiment [3] (low-fat milk, conclusion from Table 8), “comparable concentration to γ-Glu-Val-Gly”.
